In patent US20200216906A1, “METHODS AND COMPOSITIONS RELATING TO THE DIAGNOSIS AND TREATMENT OF CANCER” (PRESIDENT AND FELLOWS OF HARVARD COLLEGE, priority 2015, published 2020):
pEC50: −log10 of the molar value.

Tests used:
[1] = tested on: Panc02.13 cells with NF2 depletion; test: High-density spheroid assay, NF2-depleted Panc02.13 cells; assay type: cell-based, human
Text: In cells at low cell density, where YAP is localized to the nucleus, presumably YAP dependent transcription is turned on. At high density, YAP is in the cytoplasm, transcription is blocked and resistance to gemcitabine is high. Given these correlations it was asked whether inactivation of Hippo pathway could restore gemcitabine sensitivity in crowded conditions. Expression of a non-phosphorylatable form of YAP (YAPS6A) in Panc02.13 pancreatic cancer cells causes constitutive nuclear localization of exogenous YAP even at high crowding (data not shown).

CDA = CDA expression after verteporfin treatment; assay type: cell-based, human; conditions: verteporfin treatment of Panc02.13 cells, p<0.05
Protocol: Cells were serum-starved for 24 h and total cellular RNA was isolated using an RNeasy™ Mini Kit (QIAGEN, Santa Clara, Calif.). mRNA levels for the EMT-related genes were determined using the RT^2 Profiler™ qPCR array (SA Biosciences Corporation, Frederick, Md.). Briefly, 1 μg of total RNA was reverse transcribed into first strand cDNA using an RT^2 First Strand™ Kit (SA Biosciences). The resulting cDNA was subjected to qPCR using human gene-specific primers for 75 different genes, and five housekeeping genes (B2M, HPRT1, RPL13A, GAPDH, and ACTB). The qPCR reaction was performed with an initial denaturation step of 10 min at 95° C., followed by 15 s at 95° C. and 60 s at 60° C. for 40 cycles using an Mx3000P™ QPCR system (Stratagene, La Jolla, Calif.).
The activity of the Hippo pathway not only affected the efflux of gemcitabine but also its major metabolite, dFdU (FIG. 22B).
RNA extraction and quantitative real-time PCR. Cells were serum-starved for 24 h and total cellular RNA was isolated using an RNeasy Mini Kit (QIAGEN, Santa Clara, Calif.). mRNA levels for the EMT-related genes were determined using the RT2 Profiler™ qPCR array (SA Biosciences Corporation, Frederick, Md.). Briefly, 1 μg of total RNA was reverse transcribed into first strand cDNA using an RT2 First Strand Kit (SA Biosciences). […]

[2] = tested on: pancreatic cancer cell lines; test: Kinetic cell growth assay, panel of pancreatic cancer cell lines; assay type: cell-based, human; conditions: low density growth conditions (Hippo-Off); read-out: EC50 on pancreatic cancer cell growth
Protocol: (§1) The effect of gemcitabine on pancreatic cancer cell growth was studied using a kinetic cell growth assay. Pancreatic cancer cells were plated on 96-well plates (Essen ImageLock, Essen Instruments, MI, US) at varying densities (2-4×10^3 for low density or 15-20×10^3 for high density experiments). Small molecule inhibitors at different doses were added 24 hours after plating and cell confluence was monitored with Incucyte Live-Cell Imaging System and software (Essen Instruments). Confluence was observed every hour for 48-144h or until the control (DMSO only) samples reached 100% confluence.
FIG. 20A illustrates the kinetic cell growth assay to determine the effect of gemcitabine in a panel of pancreatic cancer cell lines. Cells are plated at low crowding conditions (10-25% confluence) and 24 hours later exposed to gemcitabine in a dose-dependent manner. They are imaged every 1-3 hours until control (vehicle) treated cells reach 100% confluence. This assay is not confounded by the fact that the time required for each cell line to reach 100% confluence may be very different (as the cell lines have different doubling times). A dose response effect of gemcitabine on cell growth for 16 pancreatic cancer cell lines is shown in FIGS. 20B, 3, 31A-31C and 28, where the range of previous studies is also shown. […] Similar responses to gemcitabine were found in liver cancer cell lines (Huh7 and FOCUS) and untransformed (HEK293) cell lines (FIGS. 3, 31A-31C).
as §1, with “Kinetic Cell growth assay. The” for “The”, “(2-4X103” for “(2-4×10^3”, “15-20X103” for “15-20×10^3”, “Incucyte™” for “Incucyte”

Panc02.13 cells = test: 3D spheroid growth assay, Panc02.13 (GFP/parental) cells; conditions: read-out: EC50 in 3D-spheroid assays; 3D-spheroid (Hippo-on)
[3] = tested on: Panc02.13 cells expressing YAPS6A; test: Gemcitabine and dFdU efflux by LC-MS/MS, Panc02.13 YAPS6A vs GFP; assay type: in vitro ADME, human; conditions: less efflux in YAPS6A after gemcitabine treatment, p<0.05
Text: It was considered whether the Hippo pathway might affect the efflux of gemcitabine and/or its metabolites. To assess directly gemcitabine efflux in conditioned media of pancreatic cancer cells both radiolabeled gemcitabine and LC-MS/MS-based methods were used. Panc02.13 cells grown in highly crowded conditions (Hippo-ON) pumped out 2-3-fold more radiolabeled gemcitabine (counts per μg protein) compared with cells grown in less crowded conditions (Hippo-OFF) (FIG. 22A). Another pathway of inactivation and export is the enzymatic conversion of gemcitabine to a uracil derivative (2′,2′-difluorodeoxyuridine, dFdU) by deamination catalyzed by cytidine deaminase (CDA)(Veltkamp et al., 2008). The efflux of gemcitabine and its deaminated metabolite, dFdU was measured by LC-MS/MS (24) in Panc02.13 cells expressing YAPS6A or vector control after gemcitabine treatment (FIG. 22B).

[4] = tested on: Miapaca2-YAPS6A xenografts; test: Mouse xenograft, Miapaca2-YAPS6A; assay type: in vivo; conditions: LC-MS/MS, p<0.01
Protocol: To assess the gemcitabine response to Hippo pathway inactivation in tumors a mouse xenograft model of pancreatic carcinoma cells and patient-derived xenograft (PDX) models from a variety of solid tumors including human cancers from non-small cell lung, esophagus, breast, mesothelium, ovary, colon, head and neck, sarcoma, and cholangiocarcinoma were used (FIG. 30). In mouse xenograft studies, two human pancreatic cancer cell lines (Miapac2 and Panc02.13) expressing GFP or YAPS6A were injected into athymic mice. Both parental or GFP expressing cells grew rapidly, producing palpable tumors in 5-10 days. When the tumors were ˜200 mm^3 (as measured using a caliper), mice were randomized into treatment and control groups. The […] received i.p. saline injections on alternate days for two weeks, and the latter received gemcitabine (20 mg/kg in Miapaca2-YAPS6A and 50 mg/Kg in Panc02.13-YAPS6A cohorts).
Tumorigenicity in Nude Mice. All in vivo experiments were performed using 6-week-old to 8-week-old athymic nude mice. Mice were maintained in laminar flow rooms with constant temperature and humidity. Miapaca2 or Panc02.13 cells were inoculated subcutaneously (s.c.) into each flank of the mice. Cells (2×10^6 in suspension) were injected on day 0, and tumor growth was followed every 2 to 3 days by tumor diameter measurements using vernier calipers. Tumor volumes (V) were calculated using the formula: V=AB2/2 (A, axial diameter; B, rotational diameter). When the outgrowths were • 200 mm^3, mice were divided at random into two groups (control and treated, n=3-8). The treated group received gemcitabine injection or saline control on alternate days (MWF) for 2 weeks.
Intra-tumor gemcitabine measurements.

H2052 (LATS2) cells = test: Gemcitabine and dFdU efflux by LC-MS/MS, H2052 cells; assay type: in vitro ADME; conditions: higher in H2052 (LATS2)
Text: Are defects in the Hippo pathway the major cause of gemcitabine sensitivity? […] Restoring the levels of LATS2 in H2052 cells caused an increase in the mRNA and proteins levels of ABCG2 and CDA (FIGS. 23C, 36A-36M).

pEC50 [2]	dFdU effluxed, YAPS6A vs GFP expressing cells [3] [fold]	Reduction in intra-tumor accumulation of dFdU vs parental control xenografts [4] [fold]	Effluxed dFdU in media, H2052 (LATS2) vs parental H2052 (LATS2−/−) (H2052 (LATS2) cells)	Compound	Sensitivity after NF2 depletion [1]	Increase in CDA levels (CDA) [fold]	pEC50 (Panc02.13 cells)
> 6.30				verteporfin	restored sensitivity	3	< 5.30
	5	> 4	2-3 fold	O=c1ccn([C@@H]2O[C@H](CO)[C@@H](O)C2(F)F)c(=O)[nH]1 [dFdU, 2′,2′-difluorodeoxyuridine]			
